Literature values, collected in patent US20230310447A1, “METHODS OF TREATING AGE-RELATED COGNITIVE DECLINE” (Woolsey Pharmaceuticals, Inc., priority 2020, published 2023).

Columns and labels:
[1] = 1-hydroxy (M3) metabolite, in vivo; Shibuya 2001
[2] = tested on: memory in aging rats; conditions: eighteen-month old rats; 0.1875 or 0.3750 mg per day, single daily injection; radial maze

half-life [1]	Compound	working memory [2]
about 8 hours	O=S(=O)(c1cccc2c(O)nccc12)N1CCCNCC1 [hydroxyfasudil]	–
–	hydroxyfasudil	improvements in working memory
